{"source": "patent US20220098201A1", "about": "“THE MONOHYDRATE OF ROGARATINIB HYDROCHLORIDE AND SOLID STATES THEREOF” (Bayer Aktiengesellschaft, priority 2019, published 2022)", "key": {"[1]": {"assay": "Stability in brown glass bottle", "type": "physicochemical", "settings": "for Assay calc. on dried substance / Ethanol / Material and colour / Sum of all organic impurities / Water: brown glass bottle"}, "[2]": {"assay": "Crystalline form (XRPD) in coated tablet during storage", "type": "physicochemical", "settings": "see Table 5", "procedure": "X-Ray diffraction patterns were recorded at room temperature using XRD-diffractometers X'Pert PRO (PANalytical) and STOE STADI-P (radiation Cu K alpha 1, wavelength 1.5406 Å). There was no sample preparation. All X-Ray reflections are quoted as °2θ (theta) values (peak maxima) with a resolution of ±0.2°.\nTablets with compound III were manufactured according to the method described above and an initial XRPD was recorded."}, "[3]": {"assay": "Storage of solid forms in closed vessels at 25° C. and 50° C.", "type": "physicochemical", "settings": "for Modification after storage in closed vessels: 12 months, humidity not set"}, "[4]": {"assay": "Moisture sorption: storage at various humidities, thermogravimetric analysis", "type": "physicochemical", "settings": "for Mass loss after storage / Modification after storage: 25° C., 12 months", "procedure": "TGA thermograms were recorded using thermobalances (model TGA7 and Pyris 1) from Perkin-Elmer.\nThe measurements were performed with a heating rate of 10 Kmin^−1 using open platinum pans. Flow gas was nitrogen. There was no sample preparation.\nTheir moisture content was then determined by thermogravimetric analysis."}, "[5]": {"assay": "Solubility in water compared with free base", "type": "physicochemical", "settings": "compared with the free base"}, "Bioavailability": {"assay": "Bioavailability", "settings": "stated as result of better solubility than the free base"}, "[6]": {"assay": "Slurry experiments of monohydrate (A) in various solvents", "type": "physicochemical", "source_text": "The residues were filtered off and dried at room temperature and ambient humidity. Reproducible preparation was not possible for all solid state forms."}, "[7]": {"assay": "Hygroscopicity and chemical stability of the di-hydrochloride on standing in air", "type": "physicochemical"}}}
{"smiles": "COCc1c(-c2cc3cc(C)cc(OC)c3s2)c2c(N)ncnn2c1CN1CCNC(=O)C1.Cl.O", "note": "[Compound (III), 4-{[4-amino-6-(methoxymethyl)-5-(7-methoxy-5-methyl-1-benzothiophen-2-yl)pyrrolo[2,1-f][1,2,4]triazin-7-yl]methyl}piperazin-2-one hydrochloride hydrate]", "values": [{"measurement": "Stability during storage over a long period of time", "setting": "[1]", "value": "very stable during storage"}, {"measurement": "Assay calc. on dried substance", "setting": "[1]; 25° C./60% r.h., 3 months", "value": 99.8, "unit": "%"}, {"measurement": "Ethanol", "setting": "[1]; 25° C./60% r.h., 3 months", "value": 0.460, "unit": "%"}, {"measurement": "Material and colour", "setting": "[1]; 25° C./60% r.h., 3 months", "value": "slightly grey-tinged solid"}, {"measurement": "Sum of all organic impurities", "setting": "[1]; 25° C./60% r.h., 3 months", "value": 1.08, "unit": "%"}, {"measurement": "Water", "setting": "[1]; 25° C./60% r.h., 3 months", "value": 3.9, "unit": "%"}, {"measurement": "Assay calc. on dried substance", "setting": "[1]; 25° C./60% r.h., 6 months", "value": 100.0, "unit": "%"}, {"measurement": "Ethanol", "setting": "[1]; 25° C./60% r.h., 6 months", "value": 0.467, "unit": "%"}, {"measurement": "Material and colour", "setting": "[1]; 25° C./60% r.h., 6 months", "value": "slightly grey-tinged solid"}, {"measurement": "Sum of all organic impurities", "setting": "[1]; 25° C./60% r.h., 6 months", "value": 1.05, "unit": "%"}, {"measurement": "Water", "setting": "[1]; 25° C./60% r.h., 6 months", "value": 3.5, "unit": "%"}, {"measurement": "Assay calc. on dried substance", "setting": "[1]; 25° C./60% r.h., 9 months", "value": 100.0, "unit": "%"}, {"measurement": "Ethanol", "setting": "[1]; 25° C./60% r.h., 9 months", "value": 0.444, "unit": "%"}, {"measurement": "Material and colour", "setting": "[1]; 25° C./60% r.h., 9 months", "value": "slightly grey-tinged solid"}, {"measurement": "Sum of all organic impurities", "setting": "[1]; 25° C./60% r.h., 9 months", "value": 1.14, "unit": "%"}, {"measurement": "Water", "setting": "[1]; 25° C./60% r.h., 9 months", "value": 3.5, "unit": "%"}, {"measurement": "Assay calc. on dried substance", "setting": "[1]; 25° C./60% r.h., 12 months", "value": 98.1, "unit": "%"}, {"measurement": "Ethanol", "setting": "[1]; 25° C./60% r.h., 12 months", "value": 0.441, "unit": "%"}, {"measurement": "Material and colour", "setting": "[1]; 25° C./60% r.h., 12 months", "value": "slightly grey-tinged solid"}, {"measurement": "Sum of all organic impurities", "setting": "[1]; 25° C./60% r.h., 12 months", "value": 1.22, "unit": "%"}, {"measurement": "Water", "setting": "[1]; 25° C./60% r.h., 12 months", "value": 3.6, "unit": "%"}, {"measurement": "Assay calc. on dried substance", "setting": "[1]; 25° C./60% r.h., 18 months", "value": 100.4, "unit": "%"}, {"measurement": "Ethanol", "setting": "[1]; 25° C./60% r.h., 18 months", "value": 0.434, "unit": "%"}, {"measurement": "Material and colour", "setting": "[1]; 25° C./60% r.h., 18 months", "value": "slightly grey-tinged solid"}, {"measurement": "Sum of all organic impurities", "setting": "[1]; 25° C./60% r.h., 18 months", "value": 1.17, "unit": "%"}, {"measurement": "Water", "setting": "[1]; 25° C./60% r.h., 18 months", "value": 3.6, "unit": "%"}, {"measurement": "Assay calc. on dried substance", "setting": "[1]; 25° C./60% r.h., 24 months", "value": 98.8, "unit": "%"}, {"measurement": "Ethanol", "setting": "[1]; 25° C./60% r.h., 24 months", "value": 0.415, "unit": "%"}, {"measurement": "Material and colour", "setting": "[1]; 25° C./60% r.h., 24 months", "value": "slightly grey-tinged solid"}, {"measurement": "Sum of all organic impurities", "setting": "[1]; 25° C./60% r.h., 24 months", "value": 1.14, "unit": "%"}, {"measurement": "Water", "setting": "[1]; 25° C./60% r.h., 24 months", "value": 3.5, "unit": "%"}, {"measurement": "Assay calc. on dried substance", "setting": "[1]; 40° C./75% r.h., 3 months", "value": 98.4, "unit": "%"}, {"measurement": "Ethanol", "setting": "[1]; 40° C./75% r.h., 3 months", "value": 0.406, "unit": "%"}, {"measurement": "Material and colour", "setting": "[1]; 40° C./75% r.h., 3 months", "value": "slightly grey-tinged solid"}, {"measurement": "Sum of all organic impurities", "setting": "[1]; 40° C./75% r.h., 3 months", "value": 1.17, "unit": "%"}, {"measurement": "Water", "setting": "[1]; 40° C./75% r.h., 3 months", "value": 3.6, "unit": "%"}, {"measurement": "Assay calc. on dried substance", "setting": "[1]; 40° C./75% r.h., 6 months", "value": 99.7, "unit": "%"}, {"measurement": "Ethanol", "setting": "[1]; 40° C./75% r.h., 6 months", "value": 0.435, "unit": "%"}, {"measurement": "Material and colour", "setting": "[1]; 40° C./75% r.h., 6 months", "value": "slightly grey-tinged solid"}, {"measurement": "Sum of all organic impurities", "setting": "[1]; 40° C./75% r.h., 6 months", "value": 1.00, "unit": "%"}, {"measurement": "Water", "setting": "[1]; 40° C./75% r.h., 6 months", "value": 3.4, "unit": "%"}, {"measurement": "Assay calc. on dried substance", "setting": "[1]; initial", "value": 100.3, "unit": "%"}, {"measurement": "Ethanol", "setting": "[1]; initial", "value": 0.533, "unit": "%"}, {"measurement": "Material and colour", "setting": "[1]; initial", "value": "slightly grey-tinged solid"}, {"measurement": "Sum of all organic impurities", "setting": "[1]; initial", "value": 1.03, "unit": "%"}, {"measurement": "Water", "setting": "[1]; initial", "value": 3.5, "unit": "%"}, {"measurement": "chemical stability", "setting": "[1]; during storage for several years", "value": "chemically stable"}, {"measurement": "Stability of the form in the tablet matrix", "setting": "[2]", "value": "stable in the tablet matrix and does not change during storage"}, {"measurement": "Modification after storage in closed vessels", "setting": "[3]; 25° C.", "value": "Monohydrate"}, {"measurement": "Modification after storage in closed vessels", "setting": "[3]; 50° C.", "value": "Monohydrate"}, {"measurement": "physical stability", "setting": "[3]; Storage at 25 and 50° C. for 12 month", "value": "no changes in stability"}, {"measurement": "Mass loss after storage", "setting": "[4]; 15% r. h.", "value": 3.7, "unit": "%"}, {"measurement": "Modification after storage", "setting": "[4]; 15% r. h.", "value": "Monohydrate"}, {"measurement": "Mass loss after storage", "setting": "[4]; 85% r. h.", "value": 3.7, "unit": "%"}, {"measurement": "Modification after storage", "setting": "[4]; 85% r. h.", "value": "Monohydrate"}, {"measurement": "Mass loss after storage", "setting": "[4]; 97% r. h.", "value": 3.7, "unit": "%"}, {"measurement": "Modification after storage", "setting": "[4]; 97% r. h.", "value": "Monohydrate"}, {"measurement": "Hygroscopicity", "setting": "[4]; conclusion from moisture sorption tests, 12 month at 15%, 85% and 97% r.h.", "value": "not hygroscopic"}, {"measurement": "uptake of water", "setting": "[4]; stored for 12 month at 15% r.h., 85% r.h and 97% r.h.", "value": "no uptake of water"}, {"measurement": "solubility in water", "setting": "[5]", "value": "significantly better solubility in water"}, {"measurement": "bioavailability", "setting": "Bioavailability", "value": "enhanced bioavailability"}, {"measurement": "Modification residue", "setting": "[6]; slurry in 1,4-Dioxane, 25 ° C., stirring time 1 week", "value": "Monohydrate (A)"}, {"measurement": "Modification residue", "setting": "[6]; slurry in Acetonitrile/water (1:1), 25 ° C., stirring time 1 week", "value": "Monohydrate (A)"}, {"measurement": "Modification residue", "setting": "[6]; slurry in Ethanol, 25 ° C., stirring time 4 weeks", "value": "Monohydrate (A)"}, {"measurement": "Modification residue", "setting": "[6]; slurry in Ethanol/water (1:1), 25 ° C., stirring time 1 week", "value": "Monohydrate (A)"}, {"measurement": "Modification residue", "setting": "[6]; slurry in Isopropanol, 0 ° C., stirring time 1 week", "value": "Monohydrate (A)"}, {"measurement": "Modification residue", "setting": "[6]; slurry in Isopropanol, 25 ° C., stirring time 4 weeks", "value": "Monohydrate (A)"}, {"measurement": "Modification residue", "setting": "[6]; slurry in Methanol, 0 ° C., stirring time 2 weeks", "value": "¾-Hydrate (D)"}, {"measurement": "Modification residue", "setting": "[6]; slurry in Methanol, 0 ° C., stirring time 5 weeks", "value": "Dihydrate (B)"}, {"measurement": "Modification residue", "setting": "[6]; slurry in Methanol, 25 ° C., stirring time 1 week", "value": "Monohydrate (A)"}, {"measurement": "Modification residue", "setting": "[6]; slurry in Tetrahydrofurane/water (1:1), 25 ° C., stirring time 4 weeks", "value": "Monohydrate (A)"}, {"measurement": "Modification residue", "setting": "[6]; slurry in Toluene, 25 ° C., stirring time 4 weeks", "value": "Monohydrate (A)"}]}
{"smiles": "COCc1c(-c2cc3cc(C)cc(OC)c3s2)c2c(N)ncnn2c1CN1CCNC(=O)C1.Cl.O.O", "note": "[Dihydrate (B)]", "values": [{"measurement": "Change of solid form during storage in a closed vessel", "setting": "[3]; closed vessel, within two weeks", "value": "transformed into the monohydrate"}, {"measurement": "Change of solid form of isolated residue", "setting": "[3]; stored at room temperature, in the course of two weeks", "value": "transformed into the Monohydrate"}]}
{"smiles": "COCc1c(-c2cc3cc(C)cc(OC)c3s2)c2c(N)ncnn2c1CN1CCNC(=O)C1.Cl.O.O.O", "note": "[Trihydrate]", "values": [{"measurement": "Modification after storage in closed vessels", "setting": "[3]; 25° C.", "value": "Trihydrate"}, {"measurement": "Mass loss after storage", "setting": "[4]; 85% r. h.", "value": 3.3, "unit": "%"}, {"measurement": "Modification after storage", "setting": "[4]; 85% r. h.", "value": "Monohydrate*"}, {"measurement": "Mass loss after storage", "setting": "[4]; 97% r. h.", "value": 6.0, "unit": "%"}, {"measurement": "Modification after storage", "setting": "[4]; 97% r. h.", "value": "Monohydrate*"}, {"measurement": "Change of solid form during storage at high humidity", "setting": "[4]; storage at high humidity", "value": "changed into the monohydrate"}]}
{"smiles": "COCc1c(-c2cc3cc(C)cc(OC)c3s2)c2c(N)ncnn2c1CN1CCNC(=O)C1.Cl.Cl", "note": "[di-hydrochloride, di-hydrochloride of 4-{[4-Amino-6-(methoxymethyl)-5-(7-methoxy-5-methyl-1-benzothiophen-2-yl)pyrrolo[2,1-f][1,2,4]triazin-7-yl]methyl}piperazin-2-one]", "values": [{"measurement": "Hygroscopicity", "setting": "[7]", "value": "very hydroscopic"}, {"measurement": "chemical stability", "setting": "[7]; on standing in the air", "value": "loses HCl on standing in the air"}]}
